Source: patent publication US8383642B2, “Spiropiperidine compounds” (Eli Lilly and Company, priority 2009, dated 2013)

Assays:
[1] = molecular target: T1, PPARγ (Homo sapiens, UniProt P37231); assay: PPARγ binding assay (SPA); design: made in house; host or cells: HEK293 (cell lysates); details: concentrations up to 10 μM
T1 sequence (P37231 1-505): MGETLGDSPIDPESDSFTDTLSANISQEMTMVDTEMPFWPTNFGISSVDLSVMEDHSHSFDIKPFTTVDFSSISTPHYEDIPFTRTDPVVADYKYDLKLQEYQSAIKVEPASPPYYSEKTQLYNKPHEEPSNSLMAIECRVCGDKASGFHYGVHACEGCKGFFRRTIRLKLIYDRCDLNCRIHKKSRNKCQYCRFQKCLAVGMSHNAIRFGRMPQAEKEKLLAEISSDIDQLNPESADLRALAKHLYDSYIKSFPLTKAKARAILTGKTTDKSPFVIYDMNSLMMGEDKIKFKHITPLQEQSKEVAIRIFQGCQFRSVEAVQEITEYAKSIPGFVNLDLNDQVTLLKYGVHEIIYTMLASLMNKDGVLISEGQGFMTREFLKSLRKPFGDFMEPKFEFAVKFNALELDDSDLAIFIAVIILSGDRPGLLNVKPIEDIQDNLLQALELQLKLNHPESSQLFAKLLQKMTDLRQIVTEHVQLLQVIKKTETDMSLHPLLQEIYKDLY
T1 sequence (P19793 1-462 partner): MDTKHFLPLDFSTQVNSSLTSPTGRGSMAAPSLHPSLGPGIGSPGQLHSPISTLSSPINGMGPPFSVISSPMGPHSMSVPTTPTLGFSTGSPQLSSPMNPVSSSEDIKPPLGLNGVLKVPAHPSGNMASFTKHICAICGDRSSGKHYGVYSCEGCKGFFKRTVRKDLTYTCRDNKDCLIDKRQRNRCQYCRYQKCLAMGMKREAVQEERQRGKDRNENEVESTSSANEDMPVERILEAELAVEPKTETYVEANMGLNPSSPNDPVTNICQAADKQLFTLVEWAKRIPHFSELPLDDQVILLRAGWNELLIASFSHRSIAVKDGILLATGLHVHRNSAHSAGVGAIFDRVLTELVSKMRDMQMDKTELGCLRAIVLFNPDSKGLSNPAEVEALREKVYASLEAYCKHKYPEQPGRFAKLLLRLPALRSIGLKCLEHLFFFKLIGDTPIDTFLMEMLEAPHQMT
Description: Because GPR40 is known to be activated by ligands to PPARγ exemplified compounds are examined in PPARα, PPARδ, and PPARγ binding and functional assays to determine the selectivity of exemplified compounds for GPR40. Compounds exemplified herein are tested essentially as described below for PPAR binding and generally have binding values greater than 1000 nM with 10 μM concentrations of test compound and are thus considered negative for PPAR activity.
Binding affinities of compounds for the PPAR α, δ, and γ receptors are assessed using Scintillation Proximity Assay (SPA) technology. Biotinylated oligonucleotide Direct Repeat 2 (DR2) is used for binding the receptors to Yttrium silicate streptavidin-coated SPA beads. […] Non-specific binding is determined in the presence of 10,000 nM of the unlabeled PPAR α/δ dual agonist reference compound for the alpha and delta receptor assays and the PPARγ agonist reference compound for the gamma receptor assay. The binding reaction (100 μl per well in a 96 well [Costar 3632] plate) is incubated for 10 h and counted disintegration per minutes (dpm) on a Wallac Microbeta. Receptor binding affinity (IC50) for the compounds is determined by fitting an 11 point concentration-response curve with a 4-parameter logistic equation. Ki, is determined from the IC50 using the Cheng-Prussoff equation and Kd determined by saturation binding. […]

[2] = molecular target: T1, PPARγ; assay: PPARγ reporter functional assay (CTF); assay type: cell-based; details: examined up to 10 μM; CV1 cells; luciferase
Excerpt: Gal4 PPARα, Gal4 PPARδ, and PPARγ reporter functional assays are also used to monitor the selectivity of exemplified compounds. CV1 cells, which are derived from the renal tissue of an African green monkey, are transfected with various receptor and reporter plasmids using Fugene. For the Gal4 PPARα and PPARδ assays, a reporter plasmid containing five tandem copies of the yeast transcription protein Gal4 response element, cloned upstream of a firefly luciferase gene driven by the major late promoter of adenovirus, is transfected together with a Simian Virus 40 (SV40) driven plasmid constitutively expressing a hybrid protein containing the Gal4 DNA binding domain (DBD), and either the PPARα or PPARδ ligand binding. For the PPARγ assay, plasmids encoding PPARγ and RXRα, both driven by a cytomegalovirus (CMV) promoter are transfected together with a plasmid containing luciferase reporter cDNA driven by the TK promoter and a receptor response element (2×PPRE). Cells are transfected in T225 cm^2 cell culture flasks in DMEM media with 5% charcoal-stripped FBS. […] After 24 hours incubation with compounds, cells are lysed and luciferase activity is determined as a measure of receptor activation by luminescence. […] The maximum percent stimulation is determined versus maximum stimulation obtained with 10 μM of an appropriate PPAR agonist reference compound. […]

In the case of CC#C[C@@H](CC(=O)O)c1ccc(OCc2ccc(CN3CCC4(C=Cc5ccccc54)CC3)cc2)cc1 [Example 1, (3S)-3-(4-{[4-(1′H-Spiro[indene-1,4′-piperidin]-1′-ylmethyl)benzyl]oxy}phenyl)hex-4-ynoic acid], the binding detected [1] is reported as “no binding is detected” and the functional activation [2] is reported as “No functional activation”.
